Assay results taken from patent US9618502B2, “Muscle stem cell or myoblast, method for screening substances that participate in metabolic conversion using same, and pharmaceutical composition comprising substance obtained from said screening method” (TOKYO METROPOLITAN GERIATRIC HOSPITAL AND INSTITUTE OF …, priority 2013, dated 2017).

Assays:
Type in all cases: cell-based, mouse
[1] = test system: cells expressing the myosin-heavy chain IIb protein; assay: Screening method of substances involved in a metabolic shift: myotube cells from immortalized muscle stem cells, mCherry fluorescence; details: for area of cells expressing the myosin-heavy chain IIb protein: two days treatment; for number of myotube cells that generate fluorescence of mCherry (cells expressing myosin-heavy chain IIb): compared to the negative control
Procedure: (§1) In this Example, 27 test compounds were tested by the screening method of substances involved in a metabolic shift using the immortalized muscle stem cells (satellite cells) prepared in Example 2.
(§2) The immortalized muscle stem cells (1×10^5) were seeded on a 60 mm dish or the immortalized muscle stem cells (2×10^3) were seeded on a 96 well plate. The cells were cultured in a DMEM containing 20% FBS, bFGF (10 ng/mL), and IFNy (10 ng/mL) at 33° C. for 1 day, and then, cultured in a DMEM containing 5% HS at 37° C. for 3 days. Subsequently, test substances were serially diluted by a DMEM containing 5% horse serum at an appropriate dilution rate, and the diluted substances were added to the dishes respectively. After two days treatment, fluorescences of YFP, Sirius, mCherry, and mCerulean in the living cells were observed using a fluorescence microscope, and the number of cells, which generate the respective fluorescence, was measured.
(§3) In this example, additional test compounds were tested using the immortalized muscle stem cells (satellite cells) prepared in Example 2. The screening method of substances involved in a metabolic shift was performed by repeating a procedure of Example 3.

[2] = test system: cells expressing the myosin-heavy chain I protein; assay: Screening method of substances involved in a metabolic shift: myotube cells from immortalized muscle stem cells, YFP fluorescence; details: for area of cells expressing the myosin-heavy chain I protein: two days treatment; for number of myotube cells that generate fluorescence of YFP (myosin-heavy chain I): compared to the negative control
Procedure: as §1, §2, §3

[3] = test system: immortalized muscle stem cells (satellite cells); assay: Proliferation inhibition screening method using satellite cells; details: 5 nM, five days of culturing, versus control without rapamycin
Procedure: The rapamycin was obtained by the metabolic shift screening method in Example 3. In this Example, whether or not the rapamycin can be screened by the proliferation inhibition screening method using satellite cells was examined.
The immortalized muscle stem cells (1×10^4) were seeded on a 35 mm dish. The cells were cultured in a DMEM containing 20% FBS, bFGF (lOng/mL), and IFNγ (10 ng/mL) at 33° C. for 1 day, and then the rapamycin was diluted to a concentration of 5 nM by a DMEM containing 5% FBS, and the diluted rapamycin was added to the dish. The number of cells was counted after five days of culturing. […] The term “Control” means negative control in which the rapamycin was not added. The proliferation of satellite cells was inhibited by adding rapamycin.

| Molecule | area of cells expressing the myosin-heavy chain IIb protein ([1]; 500 ng/mL, negative control 36.2%) [%] | number of myotube cells that generate fluorescence of mCherry (cells expressing myosin-heavy chain IIb) [1] | area of cells expressing the myosin-heavy chain I protein ([2]; 100 ng/mL, negative control 19.5%) [%] | area of cells expressing the myosin-heavy chain I protein ([2]; 500 ng/mL, negative control 19.5%) [%] | number of myotube cells that generate fluorescence of YFP (myosin-heavy chain I) [2] | area of cells expressing the myosin-heavy chain IIb protein ([1]; 4 nM, negative control 41.8%) [%] | area of cells expressing the myosin-heavy chain I protein ([2]; 4 nM, negative control 25.3%) [%] | proliferation of satellite cells (number of cells) [3] | area of cells expressing the myosin-heavy chain IIb protein ([1]; 100 nM, negative control 44.5%) [%] | area of cells expressing the myosin-heavy chain IIb protein ([1]; 500 nM, negative control 44.5%) [%] | area of cells expressing the myosin-heavy chain I protein ([2]; 1 nM, negative control 28.4%) [%] | area of cells expressing the myosin-heavy chain I protein ([2]; 10 nM, negative control 28.4%) [%] | area of cells expressing the myosin-heavy chain I protein ([2]; 100 nM, negative control 28.4%) [%] |
| --- | --- | --- | --- | --- | --- | --- | --- | --- | --- | --- | --- | --- | --- |
| IL-15: IL-15, one of the test substances | 53.0 | increased | 35.0 | 36.1 | increased |  |  |  |  |  |  |  |  |
| CO[C@H]1C[C@@H]2CC[C@@H](C)[C@@](O)(O2)C(=O)C(=O)N2CCCC[C@H]2C(=O)O[C@H]([C@H](C)C[C@@H]2CC[C@@H](O)[C@H](OC)C2)CC(=O)[C@H](C)/C=C(\C)[C@@H](O)[C@@H](OC)C(=O)[C@H](C)C[C@H](C)/C=C/C=C/C=C/1C [rapamycin] |  | decreased |  |  | increased | 8.4 | 60.9 | inhibited |  |  |  |  |  |
| N[C@@H](Cc1cc(I)c(Oc2ccc(O)c(I)c2)c(I)c1)C(=O)O [T3, triiodothyronine] |  | increased |  |  |  |  |  |  | 71.3 | 70.0 |  |  |  |
| C[C@H](Cc1ccc2c(c1)OC(C(=O)[O-])(C(=O)[O-])O2)NC[C@H](O)c1cccc(Cl)c1.[Na+].[Na+] [CL316243] |  | remains static |  |  | increased |  |  |  |  |  | 49.3 | 53.8 | 57.8 |
| mouse fibroblast growth factor 21: protein consisting of the amino acid sequence of SEQ ID NO: 1, mouse fibroblast growth factor 21 (protein, listed as Mus musculus) MEWMRSRVGTLGLWVRLLLAVFLLGVYQAYPIPDSSPLLQFGGQVRQRYLYTDDDQDTEAHLEIREDGTVVGAAHRSPESLLELKALKPGVIQILGVKASRFLCQQPDGALYGSPHFDPEACSFRELLLEDGYNVYQSEAHGLPLRLPQKDSPNQDATSWGPVRFLPMPGLLHEPQDQAGFLPPEPPDVGSSDPLSMVEPLQGRSPSYAS |  | remains static |  |  | increased |  |  |  |  |  | 40.6 | 48.0 | 54.9 |
